According to PMC9501356, “New Sulfamethoxazole Derivatives as Selective Carbonic Anhydrase IX and XII Inhibitors: Design, Synthesis, Cytotoxic Activity and Molecular Modeling” (Pharmaceuticals, 2022):
≈ marks a conversion by molar mass, not a printed value. Where two headings read alike, the source gives them in different places.

Key:
[1] = target: T1, recombinant Human Carbonic Anhydrase I (Homo sapiens, UniProt P00915); assay: CA1 inhibitory assay (4-nitrophenyl acetate esterase); assay type: biochemical; details: average ± SEM, three independent experiments; read-out: Carbonic Anhydrase IC50 (uM) hCA I
T1 construct: purchased R and D system (MN, USA)
Protocol: The hCA I was assayed following the manufacturer’s instruction and reported method (Supplementary Material Section S2) (Table 2). […]
(§1) Carbonic Anhydrase (CA) catalyzes the reversible reaction of CO2 +
H2O = HCO3- + H+. Carbonic Anhydrase I (CAI) was measured following the manufacturer’s instruction. […]
(§2) 400 nm[40] and the activity was calculated using the following equation: […]
S2.2.4. CA1 inhibitory assay
(§3) Carbonic Anhydrase (CA) cataly zes the reversible reaction of CO2 + H2O = HCO3- + H+. Carbonic Anhydrase I (CAI) was measured following the […]
Tris, 75 mM NaCl, pH 7.5). The substrate (4-Nitroph enyl acetate, 4NPA, 100 mM stock in acetone) was diluted in 2 mM in assay buffer. The reaction was started by adding 50 µL of 2 mM substrate with 50 µL of 100 ng/µL rhCAI in […]
(§4) 96 well plate. […]
(§5) 400 nm[41] and the activity was calculated using the following equation: […]

hCA II = target: T2, hCA II (Homo sapiens, UniProt P00918); assay: CAII inhibitory assay (p-nitrophenyl acetate); assay type: biochemical; details: average ± SEM, three independent experiments; read-out: Carbonic Anhydrase IC50 (uM) hCA II
T2 construct: purchased BPS bioscience (CA, USA)
Protocol: CAII was assayed following the manufacturer’s instruction and reported method (Supplementary Material Section S2) (Table 2). […]
as §1
(§6) H2O = HCO3- + H+. […]
as §2
= HCO3- + H+. […]
as §4, §5
S2.2.5. CAII inhibitory assay
CAII was assayed following the manufacturer’s instruction. A amount
of 1,400 pmol/min/µg assay mixture containing 100 mM NaCl, 15 mM Tris-

[2] = MTT cytotoxicity assay on MCF10a; assay type: cell-based; details: human, MCF10a normal breast cells, MCF10a normal breast cell line
Protocol: (§7) Suppling, specification and incubation of MCF7 and MCF10a cell lines were carried out according to the method mentioned in detail in Supplementary Material Section S2.
(§8) MTT assay is a method used for in vitro cytotoxicity of different compounds. The method details are illustrated in Supplementary Material Section S2. […]
(§9) Carbonic Anhydrase (CA) catalyzes the reversible reaction of CO2 + […]
as §6
(§10) 400 nm[40] and the activity was calculated using the following equation: […] = HCO3- + H+. […]
as §4, §5
(§11) S2.2.6. Cell culture Protocol
(§12) MCF7 and MCF10a cell lines were obtained from American Type
(§13) Culture Collection, the cultured cells were grown using DMEM
(§14) (Invitrogen/Life Technologies) in 10% fetal bovine serum (FBS), 10 μg/ml of insulin (Sigma), and 1% penicillin-streptomycin antibiotics. Other chemicals and reag ents were from ob tained f rom S igma or In vitrogen. Cells d en sity was 1.2 – 1.8 × 10^3 cells/well in a volume of 100 µl complete growth medium + 100 μl of the tested compound/well in a 96-well plate for 24 hours performing […]
(§15) assay. After treatment of cells with the serial concentrations of the tested compounds, incubation for 48 h at 37 °C is carried out.
(§16) S2.2.7. MTT – Cytotoxicity assay protocol
(§17) MTT assay is a method used for in vitro cytotoxicity of different compounds. MTT vial was reconstituted in 3 ml growth media and diluted
(§18) MTT in an amount equal to 10% of the culture medium volume. After 4hrs incubation of the reagent with the treated MCF7 and MCF10a cells, culture media was removed from incubator and dissolve the resulting formazan crystals by adding an amount of MTT solubilizing solution equal volume with the original culture medium.

MCF10a cells = assay: MTT cytotoxicity assay on MCF10a; assay type: cell-based; details: MCF10a normal breast cell line
Protocol: as §7, §8, §9, §6, §10, §4, §5, §11, §12, §13, §14, §15, §16, §17, §18

hCA IX = target: T3, hCA IX (Homo sapiens, UniProt Q16790); assay: hCA IX inhibitory assay; assay type: biochemical; details: average ± SEM, three independent experiments; read-out: Carbonic Anhydrase (IC50, nM) CA-IX
T3 construct: purchased BPS bioscience (CA, USA)
Protocol: The hCA IX was assayed following the manufacturer’s instruction and reported method. (Table 1, Figure 3A,B) (Supplementary Material Section S2). […]
mixture was incubated for 30 min at room temperature and the absorbance was measured at 405nm.
(§19) S2.2.3. hCAXII inhibitory assay
as §1
H2O = HCO3- + H+. Carbonic Anhydrase I (CAI) was measured following the manufacturer’s instruction. In brief, recombinant Human
Carbonic Anhydrase XII (rh CAXII) was diluted to […] in assay buffer (12.5 mM Tris, 75 mM NaCl, pH 7.5). The substrate (4-Nitrophenyl acetate, 4NPA, 100 mM stock in acetone) was diluted in 2 mM in assay buffer. The reaction was started by adding 50 µL of 2 mM substrate with 50 µL of 20 ng/µL rhCAXII in 96 well plate. Substrate blank containing 50 µL of assay buffer and 50 µL of substrate was included. The kinetics for 5 min of the reaction mixtures were measured at wavelength of 400 nm[40] and the activity was calculated using the following equation: […]
as §3, §5
CAII was assayed following the manufacturer’s instruction. […] Incubate for 30 min at RT and the resulted absorbance was measured at 405 nm. […]

[3] = target: T4, recombinant Human Carbonic Anhydrase XII (Homo sapiens, UniProt O43570); assay: hCA XII inhibitory assay (4-nitrophenyl acetate esterase); assay type: biochemical; details: average ± SEM, three independent experiments; read-out: Carbonic Anhydrase (IC50, nM) CA-XII
T4 construct: purchased R and D system (MN, USA)
Protocol: mixture was incubated for 30 min at room temperature and the absorbance […]
as §19, §1
H2O = HCO3- + H+. Carbonic Anhydrase I (CAI) was measured following the manufacturer’s instruction. In brief, recombinant Human […]
mM Tris, 75 mM NaCl, pH 7.5). The substrate (4-Nitrophenyl acetate, 4NPA, 100 mM stock in acetone) was diluted in 2 mM in assay buffer. The reaction was started by adding 50 µL of 2 mM substrate with 50 µL of 20 ng/µL rhCAXII in 96 well plate. Substrate blank containing 50 µL of assay buffer and 50 µL of substrate was included. The kinetics for 5 min of the reaction mixtures were measured at wavelength of 400 nm[40] and the activity was calculated using the following equation:
Specific Activity (pmol/min/µg) = Adjusted Vmax (OD/ mi n) x Conver sion Factor (pmol /OD) amount of enzyme (µg) S2.2.4. CA1 inhibitory assay
as §3
Tris, 75 mM NaCl, pH 7.5). The substrate (4-Nitroph enyl acetate, 4NPA, 100 mM stock in acetone) was diluted in 2 mM in assay buffer. The reaction was started by adding 50 µL of 2 mM substrate with 50 µL of 100 ng/µL rhCAI in 96 well plate. […]
as §5

MCF7 cells = assay: MTT cytotoxicity assay on MCF7 (hypoxia and normoxia); assay type: cell-based; details: Homo sapiens
Protocol: as §7, §8, §9, §6, §10, §4, §5, §11, §12, §13, §14, §15, §16
MTT assay is a method used for in vitro cytotoxicity of different compounds. […]

T1 sequence (P00915 whole entry): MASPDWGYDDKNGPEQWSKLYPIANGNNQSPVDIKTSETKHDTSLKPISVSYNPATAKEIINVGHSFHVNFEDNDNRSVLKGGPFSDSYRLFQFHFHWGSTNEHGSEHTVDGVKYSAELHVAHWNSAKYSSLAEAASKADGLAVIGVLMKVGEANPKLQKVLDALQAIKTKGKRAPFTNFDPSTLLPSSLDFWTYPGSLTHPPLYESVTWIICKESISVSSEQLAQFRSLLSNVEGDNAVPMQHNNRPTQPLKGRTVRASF
T4 sequence (O43570 25-354): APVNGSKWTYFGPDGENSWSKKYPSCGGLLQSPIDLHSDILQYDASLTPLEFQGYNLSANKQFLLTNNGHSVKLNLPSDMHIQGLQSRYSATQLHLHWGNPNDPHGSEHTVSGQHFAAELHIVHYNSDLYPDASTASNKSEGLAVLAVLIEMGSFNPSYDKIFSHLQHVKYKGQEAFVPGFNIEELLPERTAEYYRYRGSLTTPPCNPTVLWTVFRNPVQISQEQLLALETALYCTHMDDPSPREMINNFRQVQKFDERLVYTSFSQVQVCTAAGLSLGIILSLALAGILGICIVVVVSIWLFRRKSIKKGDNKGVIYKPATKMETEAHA

Structure (SMILES)	IC50 [1] [µM]	IC50 (hCA II) [µM]	IC50 (hCA IX) [nM]	IC50 [3] [nM]	IC50 at 48 h [2] [µg/mL]	Cytotoxicity (IC50 µg/mL) MCF10a (MCF10a cells) [µg/mL]	IC50 (MCF7 cells; MCF7, MCF7, hypoxia, read-out: Cytotoxicity (IC50 µg/mL) MCF7 Hypoxia) [µg/mL]	IC50 (MCF7 cells; MCF7, MCF7, normoxia, read-out: Cytotoxicity (IC50 µg/mL) MCF7 Normoxia) [µg/mL]
Cc1cc(NS(=O)(=O)c2ccc(NC(=O)c3ccc(Cl)cc3)cc2)no1 [S9, 4-Chloro-N-(4-(N-(5-methylisoxazol-3-yl)sulfamoyl)phenyl)benzamide]	0.121 ± 0.006	0.543 ± 0.03	–	–	34.7 ± 1.87 (≈ 88.6 µM)	46.72 ± 2.52	–	–
Cc1ccc(/C=C2\SC(Nc3ccc(S(=O)(=O)Nc4cc(C)on4)cc3)=NC2=O)cc1 [S19, (Z)-4-((5-(4-Methylbenzylidene)-4-oxo-4,5-dihydrothiazol-2-yl)amino)-N-(5-methylisoxazol-3-yl)benzenesulfonamide]	–	–	–	0.9	–	–	–	–

Second part, led by results:

IC50 [1] [µM]	IC50 (hCA II) [µM]	IC50 (hCA IX) [nM]	IC50 [3] [nM]	Structure (SMILES)	IC50 at 48 h [2] [µg/mL]	Cytotoxicity (IC50 µg/mL) MCF10a (MCF10a cells) [µg/mL]	IC50 (MCF7 cells; MCF7, MCF7, hypoxia, read-out: Cytotoxicity (IC50 µg/mL) MCF7 Hypoxia) [µg/mL]	IC50 (MCF7 cells; MCF7, MCF7, normoxia, read-out: Cytotoxicity (IC50 µg/mL) MCF7 Normoxia) [µg/mL]
0.177 ± 0.008	0.102 ± 0.006	–	–	C=CCN(c1cc(C)on1)S(=O)(=O)c1ccc(N)cc1 [S2, N-Allyl-4-amino-N-(5-methylisoxazol-3-yl)benzenesulfonamide]	–	–	–	–
0.08 ± 0.003	0.199 ± 0.011	0.042	–	CCCN(c1cc(C)on1)S(=O)(=O)c1ccc(N)cc1 [S3, 4-Amino-N-(5-methylisoxazol-3-yl)-N-propylbenzenesulfonamide]	–	–	–	–
1.02 ± 0.049	1.85 ± 0.12	–	–	Cc1ccc(C(=O)Nc2ccc(S(=O)(=O)Nc3cc(C)on3)cc2)cc1 [S8, 4-Methyl-N-(4-(N-(5-methylisoxazol-3-yl)sulfamoyl)phenyl)benzamide]	31.6 ± 1.71 (≈ 85.2 µM)	–	3.64 ± 0.2 (≈ 9.8 µM)	7.68 ± 0.41 (≈ 20.7 µM)
